# ChEMBL document CHEMBL1201862, “PubChem BioAssay data set” (2004)
# Calls of active or inactive are those of the source.
# Legend:
# [1] = molecular target: Trypsin (Sus scrofa, UniProt P00761); experiment: porcine trypsin inhibitors, dose response, selectivity assay for Rce1 protease inhibitor project, biochemical, quenched peptide fluorescence, cherry-pick (AID 488789)
# [2] = molecular target: T1, CAAX prenyl protease 2 (Saccharomyces cerevisiae S288c, UniProt Q03530); assay type: biochemical
# T1 sequence (Q03530 whole entry): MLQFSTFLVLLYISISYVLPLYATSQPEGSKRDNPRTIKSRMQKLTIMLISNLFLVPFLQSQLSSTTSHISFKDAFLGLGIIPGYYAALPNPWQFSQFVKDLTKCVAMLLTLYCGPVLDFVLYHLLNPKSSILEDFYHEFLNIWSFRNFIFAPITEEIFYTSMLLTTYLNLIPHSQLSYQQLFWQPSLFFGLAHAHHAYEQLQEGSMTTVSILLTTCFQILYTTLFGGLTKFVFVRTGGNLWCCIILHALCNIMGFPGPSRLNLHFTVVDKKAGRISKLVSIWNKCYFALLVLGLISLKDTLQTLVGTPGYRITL
# [3] = molecular target: CAAX prenyl protease 1 (Saccharomyces cerevisiae S288c, UniProt P47154); experiment: Ste24 protease inhibitors, dose response, biochemical, S. cerevisiae, plate reader, cherry-pick (AID 488815)
# [4] = molecular target: T2, Endoribonuclease toxin MazF (Escherichia coli K-12, UniProt P0AE70); experiment: MazF toxin RNase activators, dose response, biochemical, fluorescence, single-stranded RNA substrate, uHTS hits (AID 588481); assay type: functional
# T2 sequence (P0AE70 whole entry): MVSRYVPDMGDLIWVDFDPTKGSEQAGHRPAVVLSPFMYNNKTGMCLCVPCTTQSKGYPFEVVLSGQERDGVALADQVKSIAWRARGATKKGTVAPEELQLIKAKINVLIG
# [5] = molecular target: T2, Endoribonuclease toxin MazF; experiment: fluorescent RNA oligo signal without MazF, dose response, counter-screen for MazEF activator project, biochemical, fluorescence, single-stranded RNase substrate (AID 588502); assay type: functional
# [6] = molecular target: Melanocortin receptor 4 (Homo sapiens, UniProt P32245); assay type: functional, cell-based;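 further: Cell-based assay with luminescence read-out, confirmatory dose-response testing for agonist activity of biased ligands at MC4R; human U2OS cells with tagged receptor and beta-arrestin; potency of agonists that increase receptor coupling to beta-arrestin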
# [7] = molecular target: Voltage-gated inwardly rectifying potassium channel KCNH2 (Homo sapiens, UniProt Q12809); details: Potency;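 further: confirmatory quantitative high-throughput screen measuring inhibition of hERG channel activity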
# [8] = tested on: Candida albicans; experiment: growth inhibition of resistant C. albicans, dose response, CaCi-8 strain, fluconazole, dry powder, set 4 (AID 488950); assay type: functional, organism-based
# [9] = tested on: Candida albicans; experiment: growth inhibition of azole-resistant C. albicans, dose response, CaCi-8 strain, Alamar Blue, dry powder, set 2 (AID 488909); assay type: functional, organism-based
# [10] = tested on: BJ; experiment: cytotoxicity toward BJ-TERT fibroblasts, dose response, cell-based, RAS-independent, luminescence (AID 1933); assay type: functional; details: Homo sapiens
# [11] = tested on: BJ; experiment: cells; assay type: functional, cell-based; details: Homo sapiens
# [12] = inhibitors of intracellular T. cruzi replication, confirmation, NIH3T3 host cells, beta-gal luminescence (AID 2044); assay type: functional, cell-based;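 further: intracellular parasites grown in NIH/3T3 mouse fibroblasts as host cells; luminescent beta-galactosidase reporter signal from transgenic T. cruzi replicating inside host cells; inhibitors lower the luminescence signal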
# [13] = cytotoxicity toward NIH3T3 fibroblasts, dose response, counter-screen, cell-based, ATP luminescence, mouse fibroblasts (AID 2010); assay type: functional;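 further: cells exposed to compound for about 90 hours before reading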
# [14] = tested on: BJ; experiment: cytotoxicity toward BJ-TERT-LT-ST fibroblasts, dose response, cell-based, RAS-independent, luminescence (AID 1935); assay type: functional; details: Homo sapiens;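 further: BJ fibroblasts immortalized with TERT plus LT and ST oncogenes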
# [15] = cytotoxicity toward DRD oncogenic fibroblasts, dose response, cell-based, non-viral oncogenic, luminescence (AID 1934); assay type: functional; details: Homo sapiens
# [16] = Luminescence Cell-Based Dose Retest to Confirm Inhibitors of Cancer Stem Cells. [Related pubchem assays (depositor defined):AID2717, AID2721]; assay type: functional; details: Homo sapiens
# [17] = cytotoxicity in HMLE control line with eGFP shRNA, dose response, counter-screen for HMLE_sh_ECad selective toxicity project, cell-based, HMLE_sh_eGFP, luminescence (AID 463074); assay type: functional, Homo sapiens;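 further: HMLE human mammary epithelial cells expressing control shRNA against eGFP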
# [18] = molecular target: CAAX prenyl protease 2 (Homo sapiens, UniProt Q9Y256); experiment: human Rce1 protease inhibitors, dose response, biochemical, yeast membranes, quenched-peptide fluorescence, cherry-pick (AID 588849)
# [19] = Luminescence-based dose response cell-based high throughput screening assay for cytotoxic compounds using the IEC-6 intestinal epithelial cell line. [Related pubchem assays: 1858 (Summary AID.), 1825 (Counterscreen.), 1907 (Confirmation screen.)]; assay type: functional
# [20] = THP-1 cell cytotoxicity, dose response, cytotoxicity control for non-replicating M. tuberculosis project (AID 489025); assay type: functional
# [21] = HepG2 cell cytotoxicity, dose response, cytotoxicity control for non-replicating M. tuberculosis project (AID 489018); assay type: functional; details: Mycobacterium tuberculosis
# [22] = Vero E6 cell cytotoxicity, dose response, cytotoxicity control for non-replicating M. tuberculosis project, secondary assay (AID 492998); assay type: functional, VeroE6; details: Vero C1008
# [23] = cells; assay type: functional
# [24] = molecular target: Paired box protein Pax-8 (Homo sapiens, UniProt Q06710); experiment: inhibitors of PAX8-driven TPO luciferase reporter, dose response, RMG-I cells, cherry-pick (AID 687027); assay type: functional, cell-based;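 further: luciferase reporter driven by Pax8 target thyroperoxidase promoter measured by SteadyGlo luminescence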
# [25] = tested on: Escherichia coli; experiment: microbe, parasite or virus in culture
# [26] = tested on: Escherichia coli; experiment: microbe, parasite or virus in culture; remark: listed apart in the source
# [27] = molecular target: T3, Short transient receptor potential channel 4 (Mus musculus, UniProt Q9QUQ5); experiment: mouse TRPC4 channel activators, dose response, cell-based, HEK293 TRPC4/mu-opioid, Fluo-4 calcium (AID 434937); assay type: functional
# T3 sequence (Q9QUQ5 whole entry): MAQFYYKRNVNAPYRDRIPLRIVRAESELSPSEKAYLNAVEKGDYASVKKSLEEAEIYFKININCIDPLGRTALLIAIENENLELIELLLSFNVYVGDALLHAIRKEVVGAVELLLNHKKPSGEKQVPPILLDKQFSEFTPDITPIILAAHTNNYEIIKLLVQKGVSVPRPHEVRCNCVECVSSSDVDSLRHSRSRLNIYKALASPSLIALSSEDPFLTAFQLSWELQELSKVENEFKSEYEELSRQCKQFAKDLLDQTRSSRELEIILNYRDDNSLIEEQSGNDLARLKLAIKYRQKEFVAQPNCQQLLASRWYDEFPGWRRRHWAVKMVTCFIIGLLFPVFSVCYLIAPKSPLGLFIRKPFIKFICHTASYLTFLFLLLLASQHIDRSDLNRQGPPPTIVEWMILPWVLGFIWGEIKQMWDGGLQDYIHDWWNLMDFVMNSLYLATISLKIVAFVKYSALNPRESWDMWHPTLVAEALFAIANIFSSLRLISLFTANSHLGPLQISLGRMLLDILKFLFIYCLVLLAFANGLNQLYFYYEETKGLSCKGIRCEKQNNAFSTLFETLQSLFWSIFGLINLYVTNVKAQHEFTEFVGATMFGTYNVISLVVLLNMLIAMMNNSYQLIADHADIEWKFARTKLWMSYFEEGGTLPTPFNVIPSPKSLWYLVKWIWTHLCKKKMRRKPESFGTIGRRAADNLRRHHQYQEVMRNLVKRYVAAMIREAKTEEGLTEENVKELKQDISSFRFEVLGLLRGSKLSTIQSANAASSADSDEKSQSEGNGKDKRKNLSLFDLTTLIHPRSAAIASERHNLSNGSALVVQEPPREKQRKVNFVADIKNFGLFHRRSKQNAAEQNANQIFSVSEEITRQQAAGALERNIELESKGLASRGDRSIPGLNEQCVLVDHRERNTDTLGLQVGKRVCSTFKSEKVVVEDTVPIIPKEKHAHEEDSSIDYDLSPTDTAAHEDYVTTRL
# [28] = molecular target: Delta-type opioid receptor (Homo sapiens, UniProt P41143); experiment: Counterscreen for agonists of heterodimerization of the mu 1 (OPRM1) and delta 1 (OPRD1) opioid receptors: Luminescence-based cell-based high throughput dose response assay to identify agonists of OPRD1 homodimerization. [Related pubchem assays (depositor defined):AID504326, AID504355, AID504692, AID504904, AID504905]; assay type: functional
# [29] = molecular target: Mu-type opioid receptor (Homo sapiens, UniProt P35372); experiment: Counterscreen for agonists of heterodimerization of the mu 1 (OPRM1) and delta 1 (OPRD1) opioid receptors: Luminescence-based cell-based high throughput dose response assay to identify agonists of OPRM1 homodimerization.; assay type: functional;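 further: U2OS cells expressing OPRM1 and beta-arrestin as split beta-galactosidase partners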
# [30] = molecular target: 5-hydroxytryptamine receptor 5A (Homo sapiens, UniProt P47898); experiment: Counterscreen for agonists of OPRM1-OPRD1 heterodimerization: luminescence-based cell-based high throughput dose response assay to identify agonists of 5-hydroxytryptamine (serotonin) 5A receptor (HTR5A). [Related pubchem assays (depositor defined):AID504326, AID504355, AID504692, AID504904, AID504905]; assay type: functional
# [31] = tested on: A-375; experiment: MITF: Counter assay: A375 proliferation Measured in Cell-Based System Using Plate Reader - 2084-03_Inhibitor_Dose_DryPowder_Activity. [Related pubchem assays (depositor defined):AID488944]; assay type: functional; details: Homo sapiens
# [32] = tested on: A-375; experiment: A375 melanoma cell viability reduction, dose response, counter-screen for MITF modulator project, cherry-pick samples, set 2 (AID 540335); assay type: functional, cell-based; details: Homo sapiens
# [33] = molecular target: UDP-galactopyranose mutase (Mycobacterium tuberculosis, UniProt P9WIQ1); experiment: Inhibitors of Mycobacterium tuberculosis UDP-galactopyranose mutase (UGM) enzyme Measured in Biochemical System Using Plate Reader - 2105-02_Inhibitor_Dose_CherryPick_Activity. [Related pubchem assays (depositor defined):AID504439]
# [34] = tested on: HEK293; experiment: cells; details: Homo sapiens
# [35] = tested on: HEK293; experiment: cells; details: Homo sapiens; remark: listed apart in the source
# [36] = tested on: HEK293; experiment: cytotoxicity in HEK293T NF-kB-Luc cells, SAR follow-up, cytotoxicity control for NF-kB activator project, cell-based, resazurin fluorescence (AID 493251); assay type: functional; details: Homo sapiens
# [37] = inhibitors of Trypanosoma cruzi host-cell infection, confirmation, beta-gal luminescence, NIH3T3 host cells (AID 2630); assay type: functional, cell-based; details: Mus musculus
# [38] = molecular target: T4, sn-1-specific diacylglycerol lipase ABHD11 (Mus musculus, UniProt Q8K4F5); experiment: Late stage assay provider results from the probe development effort to identify inhibitors of LYPLA1: fluorescence-based cell-based gel-based Activity-Based Protein Profiling (ABPP) IC50 for anti-target ABHD11. [Related pubchem assays (depositor defined):AID2174, AID2177, AID2202, AID2203, AID2232, AID2233, AID493105, AID493108, AID493109, AID493110, AID493111, AID493154, AID493161, AID504892]; assay type: functional
# [39] = molecular target: T4, sn-1-specific diacylglycerol lipase ABHD11; experiment: Late stage assay provider results from the probe development effort to identify inhibitors of LYPLA1 and LYPLA2: Gel-based Activity-Based Protein Profiling (ABPP) IC50 for off-target ABHD11. [Related pubchem assays (depositor defined):AID2174, AID2202, AID2203, AID2233, AID504482, AID504498, AID504505, AID504507, AID504510, AID504520, AID504522, AID504892]; assay type: functional
# T4 sequence (Q8K4F5 whole entry): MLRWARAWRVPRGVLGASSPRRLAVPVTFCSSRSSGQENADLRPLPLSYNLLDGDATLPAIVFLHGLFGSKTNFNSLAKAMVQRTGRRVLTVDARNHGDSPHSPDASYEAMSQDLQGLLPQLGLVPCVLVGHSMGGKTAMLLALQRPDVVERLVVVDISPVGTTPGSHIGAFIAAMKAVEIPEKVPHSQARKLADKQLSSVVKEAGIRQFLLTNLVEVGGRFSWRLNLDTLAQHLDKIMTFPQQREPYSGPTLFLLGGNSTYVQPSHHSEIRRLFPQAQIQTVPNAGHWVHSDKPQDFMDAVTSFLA
# Sequence of Melanocortin receptor 4 (P32245 whole entry): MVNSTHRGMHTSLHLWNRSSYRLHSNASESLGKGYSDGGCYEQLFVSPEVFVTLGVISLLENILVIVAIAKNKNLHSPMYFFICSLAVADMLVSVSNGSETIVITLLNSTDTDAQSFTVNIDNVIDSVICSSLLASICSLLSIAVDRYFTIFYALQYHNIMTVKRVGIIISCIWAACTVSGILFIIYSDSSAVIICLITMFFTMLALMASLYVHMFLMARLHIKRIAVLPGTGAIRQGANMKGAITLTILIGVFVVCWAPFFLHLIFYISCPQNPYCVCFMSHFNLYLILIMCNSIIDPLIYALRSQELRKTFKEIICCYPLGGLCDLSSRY
# Sequence of Paired box protein Pax-8 (Q06710 whole entry): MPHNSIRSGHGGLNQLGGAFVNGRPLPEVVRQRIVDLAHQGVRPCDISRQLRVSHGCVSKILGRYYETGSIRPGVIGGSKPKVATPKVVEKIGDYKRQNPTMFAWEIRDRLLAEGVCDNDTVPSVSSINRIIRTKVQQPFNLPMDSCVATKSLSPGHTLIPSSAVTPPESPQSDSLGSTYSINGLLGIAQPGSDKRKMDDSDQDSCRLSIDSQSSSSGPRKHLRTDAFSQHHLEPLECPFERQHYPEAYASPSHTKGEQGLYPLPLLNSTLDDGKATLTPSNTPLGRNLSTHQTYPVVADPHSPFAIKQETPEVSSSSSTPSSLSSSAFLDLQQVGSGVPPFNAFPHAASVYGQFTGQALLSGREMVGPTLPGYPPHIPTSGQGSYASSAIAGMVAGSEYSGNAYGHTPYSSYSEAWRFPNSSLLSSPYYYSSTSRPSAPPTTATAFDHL
# Sequence of CAAX prenyl protease 2 (Homo sapiens, UniProt Q9Y256) (Q9Y256 whole entry): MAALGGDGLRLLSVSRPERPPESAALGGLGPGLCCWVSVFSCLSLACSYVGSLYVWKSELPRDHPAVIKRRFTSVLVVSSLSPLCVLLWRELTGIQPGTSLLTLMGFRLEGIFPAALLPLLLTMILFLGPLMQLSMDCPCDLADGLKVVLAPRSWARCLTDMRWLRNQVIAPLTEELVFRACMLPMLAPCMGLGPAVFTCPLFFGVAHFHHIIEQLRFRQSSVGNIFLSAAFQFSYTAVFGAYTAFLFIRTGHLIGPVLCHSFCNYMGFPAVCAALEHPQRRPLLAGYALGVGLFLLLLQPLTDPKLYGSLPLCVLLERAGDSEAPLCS
# Sequence of 5-hydroxytryptamine receptor 5A (P47898 whole entry): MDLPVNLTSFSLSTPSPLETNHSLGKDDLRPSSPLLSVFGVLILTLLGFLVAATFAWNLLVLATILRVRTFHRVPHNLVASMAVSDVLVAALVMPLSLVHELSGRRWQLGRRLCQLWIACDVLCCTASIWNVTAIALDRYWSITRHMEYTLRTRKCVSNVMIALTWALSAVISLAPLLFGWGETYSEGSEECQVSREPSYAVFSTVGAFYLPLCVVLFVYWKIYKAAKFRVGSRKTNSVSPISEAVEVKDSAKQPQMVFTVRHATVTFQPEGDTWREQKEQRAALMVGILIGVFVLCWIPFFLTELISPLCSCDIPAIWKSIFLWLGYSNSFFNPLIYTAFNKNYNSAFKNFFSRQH
# Sequence of UDP-galactopyranose mutase (P9WIQ1 whole entry): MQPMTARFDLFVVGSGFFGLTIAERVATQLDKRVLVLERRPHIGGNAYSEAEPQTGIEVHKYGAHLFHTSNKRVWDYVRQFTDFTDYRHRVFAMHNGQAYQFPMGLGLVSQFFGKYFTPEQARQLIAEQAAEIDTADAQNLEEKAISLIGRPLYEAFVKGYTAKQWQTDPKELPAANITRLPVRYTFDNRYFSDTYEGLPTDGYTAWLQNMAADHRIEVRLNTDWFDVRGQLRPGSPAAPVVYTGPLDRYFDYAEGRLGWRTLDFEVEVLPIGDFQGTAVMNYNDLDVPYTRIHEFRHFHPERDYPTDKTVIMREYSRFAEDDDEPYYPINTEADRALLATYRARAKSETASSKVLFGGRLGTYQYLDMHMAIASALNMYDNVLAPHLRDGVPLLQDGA
# Sequence of Mu-type opioid receptor (P35372 whole entry): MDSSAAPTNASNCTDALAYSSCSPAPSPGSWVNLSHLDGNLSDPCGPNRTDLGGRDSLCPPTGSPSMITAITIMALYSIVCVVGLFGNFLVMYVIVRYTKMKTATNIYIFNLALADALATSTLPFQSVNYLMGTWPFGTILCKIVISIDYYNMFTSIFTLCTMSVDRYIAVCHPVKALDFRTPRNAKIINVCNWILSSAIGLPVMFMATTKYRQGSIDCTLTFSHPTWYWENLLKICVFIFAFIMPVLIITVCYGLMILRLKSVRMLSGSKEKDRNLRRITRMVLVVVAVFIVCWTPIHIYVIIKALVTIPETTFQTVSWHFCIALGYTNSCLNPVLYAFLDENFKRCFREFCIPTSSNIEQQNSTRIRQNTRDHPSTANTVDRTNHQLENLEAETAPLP
# Sequence of Voltage-gated inwardly rectifying potassium channel KCNH2 (Q12809 whole entry): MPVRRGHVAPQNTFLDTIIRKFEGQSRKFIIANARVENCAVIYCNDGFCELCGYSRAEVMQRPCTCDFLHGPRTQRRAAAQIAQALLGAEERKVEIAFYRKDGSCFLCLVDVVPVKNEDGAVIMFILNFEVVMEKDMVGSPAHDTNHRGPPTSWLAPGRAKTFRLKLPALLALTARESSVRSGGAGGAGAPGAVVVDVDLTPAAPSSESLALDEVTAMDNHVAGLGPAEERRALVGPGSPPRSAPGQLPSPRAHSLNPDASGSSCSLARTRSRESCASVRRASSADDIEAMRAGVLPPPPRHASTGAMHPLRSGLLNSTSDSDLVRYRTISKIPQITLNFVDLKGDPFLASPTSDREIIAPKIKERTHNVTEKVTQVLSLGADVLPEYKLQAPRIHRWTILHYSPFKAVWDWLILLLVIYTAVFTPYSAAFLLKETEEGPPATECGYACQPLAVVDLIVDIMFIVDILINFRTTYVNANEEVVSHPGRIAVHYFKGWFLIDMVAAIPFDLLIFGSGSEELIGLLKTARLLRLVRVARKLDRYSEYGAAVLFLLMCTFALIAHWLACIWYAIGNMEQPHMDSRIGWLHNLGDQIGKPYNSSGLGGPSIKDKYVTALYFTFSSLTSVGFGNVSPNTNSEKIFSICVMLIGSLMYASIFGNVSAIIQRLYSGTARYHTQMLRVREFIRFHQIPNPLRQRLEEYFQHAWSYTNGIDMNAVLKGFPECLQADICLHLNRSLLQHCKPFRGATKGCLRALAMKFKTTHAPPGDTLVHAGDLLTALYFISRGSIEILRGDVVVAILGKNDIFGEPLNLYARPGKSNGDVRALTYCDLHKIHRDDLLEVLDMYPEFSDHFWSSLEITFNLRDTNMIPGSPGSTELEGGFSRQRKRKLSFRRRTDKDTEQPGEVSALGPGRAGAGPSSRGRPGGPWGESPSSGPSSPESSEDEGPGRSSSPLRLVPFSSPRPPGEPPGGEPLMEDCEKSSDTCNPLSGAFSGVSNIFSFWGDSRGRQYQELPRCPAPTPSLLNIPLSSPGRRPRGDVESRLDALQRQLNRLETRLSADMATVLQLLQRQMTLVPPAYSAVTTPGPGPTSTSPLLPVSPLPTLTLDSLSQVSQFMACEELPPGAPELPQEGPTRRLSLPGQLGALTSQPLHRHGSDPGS
# Sequence of Trypsin (P00761 whole entry): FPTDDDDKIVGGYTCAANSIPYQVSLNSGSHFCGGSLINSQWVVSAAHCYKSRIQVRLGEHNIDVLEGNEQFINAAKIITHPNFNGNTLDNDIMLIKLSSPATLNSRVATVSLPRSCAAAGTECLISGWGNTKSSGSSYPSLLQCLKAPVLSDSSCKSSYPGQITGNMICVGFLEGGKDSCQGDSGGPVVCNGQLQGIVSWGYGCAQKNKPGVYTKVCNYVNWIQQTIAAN
# Sequence of CAAX prenyl protease 1 (P47154 whole entry): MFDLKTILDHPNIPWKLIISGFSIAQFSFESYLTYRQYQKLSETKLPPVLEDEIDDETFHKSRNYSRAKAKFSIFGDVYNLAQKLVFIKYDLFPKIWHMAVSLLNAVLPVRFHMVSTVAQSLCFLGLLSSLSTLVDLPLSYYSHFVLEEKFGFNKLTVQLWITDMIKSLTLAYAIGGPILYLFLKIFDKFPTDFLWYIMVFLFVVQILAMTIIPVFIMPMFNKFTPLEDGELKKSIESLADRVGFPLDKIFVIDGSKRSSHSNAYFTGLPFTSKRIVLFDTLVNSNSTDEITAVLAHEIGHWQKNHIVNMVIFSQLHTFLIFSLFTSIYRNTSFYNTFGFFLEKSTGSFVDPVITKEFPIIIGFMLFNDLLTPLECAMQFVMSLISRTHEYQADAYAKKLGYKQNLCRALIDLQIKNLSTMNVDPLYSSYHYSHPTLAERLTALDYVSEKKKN
# Sequence of Delta-type opioid receptor (P41143 whole entry): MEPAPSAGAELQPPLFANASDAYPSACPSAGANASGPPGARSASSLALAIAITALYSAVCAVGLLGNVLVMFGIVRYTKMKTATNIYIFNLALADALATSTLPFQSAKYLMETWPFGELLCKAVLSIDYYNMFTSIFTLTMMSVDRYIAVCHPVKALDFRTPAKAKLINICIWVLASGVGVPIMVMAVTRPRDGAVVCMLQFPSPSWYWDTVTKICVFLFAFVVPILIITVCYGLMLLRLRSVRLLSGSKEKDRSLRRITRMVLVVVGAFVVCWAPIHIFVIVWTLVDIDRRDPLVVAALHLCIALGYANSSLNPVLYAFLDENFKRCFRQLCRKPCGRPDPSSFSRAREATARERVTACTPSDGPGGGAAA
structure (smiles),measurement,setting,value
Cc1nc(NC(=O)c2cccc(-c3cc4ccccc4oc3=O)c2)ccc1Br,AC50,[1],16.6 µM (active)
same,AC50,[2],> 100 µM (inactive)
same,AC50,[3],11.9 µM (active)
same,EC50,[4],> 99 µM (inactive)
same,EC50,[5],> 99 µM (inactive)
same,EC50,[6],> 89.2 µM (inactive)
C(=C/c1ccccc1)/c1ccccc1,AC50,[7],22.4 µM (inconclusive)
O=C(c1ccc(Cl)cc1)N1CCCN(c2ccnc3cc(Cl)ccc23)CC1,AC50,[8],12.7 µM (active)
same,AC50,[9],< 0.195 µM (active)
CN1CCN(c2ccc(C(=O)c3ccccc3)cc2[N+](=O)[O-])CC1,EC50,[10],> 150 µM (not active)
same,EC50,[11],> 150 µM (not active)
same,EC50,[12],0.399 µM (active)
same,EC50,[13],> 60 µM (not active)
same,EC50,[14],> 150 µM (inconclusive)
same,EC50,[15],> 150 µM (not active)
same,AC50,[16],2.09 µM (active)
same,AC50,[17],77.6 µM (active)
CCc1cc(=O)oc2cc(OCC(=O)N3CCC(C(=O)O)CC3)ccc12,AC50,[2],31.9 µM (active)
same,AC50,[18],14.3 µM (active)
CN1CCc2c(sc(NC(=O)c3ccc([N+](=O)[O-])o3)c2C(N)=O)C1,EC50,[12],1.26 µM (active)
same,IC50,[19],0.879 µM (active)
same,EC50,[13],3.92 µM (active)
same,CC50,[20],1.21 µM (active)
same,CC50,[21],2.55 µM (active)
same,CC50,[22],0.54 µM (active)
same,IC50,[23],17.6 µM (active)
same,AC50,[24],1.67 µM (active)
same,AC50,[25],23.2 µM (active)
same,AC50,[26],26.4 µM (active)
Cc1ccc(Cl)cc1NC(=O)CNCC(c1ccccc1)N(C)C (centres undefined),EC50,[27],0.376 µM (active)
same,EC50,[28],> 92.5 µM (inactive)
same,EC50,[29],> 92.5 µM (inactive)
same,EC50,[30],> 92.5 µM (inactive)
Cc1csc(NC(=O)Cc2c(F)cccc2Cl)n1,AC50,[31],> 35 µM (active)
same,AC50,[32],> 35 µM (active)
O=C(COC(=O)c1ccc([N+](=O)[O-])o1)NC1CCCC1,AC50,[33],> 500 µM (inactive)
Cc1cc(C)nc(SC2c3cccc4cccc(c34)C2NS(=O)(=O)c2ccccc2)n1 (centres undefined),EC50,[12],1.87 µM (active)
same,EC50,[13],12.8 µM (active)
same,EC50,[34],> 59.6 µM (inactive)
same,EC50,[35],> 59.6 µM (inactive)
Cc1oc(-c2ccccc2)nc1CSCC(=O)NCc1ccco1,IC50,[36],> 80 µM (inactive)
Cc1ccc(NC(=O)CCC(=O)N/N=C/c2ccc(C)o2)c(C)c1,EC50,[37],195 µM (inactive)
CCC1CCCCN1C(=O)n1ncc(C(O)(c2ccccc2)c2ccccc2)n1 (centres undefined),IC50,[38],0.000678 µM (active)
same,IC50,[39],0.015 µM (active)
